Experimental data as given in ChEMBL document CHEMBL1201862, “PubChem BioAssay data set” (2004).
Values joined by “and” are separate entries in the source; they are usually repeats but may differ in a detail not shown here. Equal entries are not always repeated.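 Where inhibition never reached the appropriate level, the endpoint shown equals the highest concentration tested. Otherwise, values were interpolated linearly from a five-concentration, 48-hour dose response in 96-well plates. Here, GI50 denotes the concentration required for 50% inhibition of growth.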 Active and inactive are the calls of the source. No stated cut-off is given here; in the data, active = GI50 up to about 1.1 µM and inactive = higher. Where a SMILES comes first, the peptide text is derived from it. [ ]: non-standard residue; d: D form. The star is where a group is joined. Phe(4-NO2) = N[CH](Cc1ccc([N+](=O)[O-])cc1)C(=O)O; Boc = CC(C)(C)OC(=O)*; OtBu = CC(C)(C)O*

What was measured:
Assay in all cases: inhibition of tumour cell growth, NCI panel, 48 h
A549 = tested on: A549
ACHN = tested on: ACHN
CCRF-CEM = tested on: CCRF-CEM
COLO 205 = tested on: COLO 205
HCT-15 = tested on: HCT-15
HOP-62 = tested on: HOP-62
IGROV-1 = tested on: IGROV-1
LOX IMVI = tested on: LOX IMVI
MCF7 = tested on: MCF7
MDA-MB-435 = tested on: MDA-MB-435
MDA-N = tested on: MDA-N
RPMI-8226 = tested on: RPMI-8226
SF-539 = tested on: SF-539
SN12C = tested on: SN12C
SNB-19 = tested on: SNB-19
SR = tested on: SR
SW-620 = tested on: SW-620
TK-10 = tested on: TK-10
UO-31 = tested on: UO-31
M19-MEL = tested on: M19-MEL

Row | Structure (SMILES) | GI50 (A549) | GI50 (ACHN) | GI50 (CCRF-CEM) | GI50 (COLO 205) | GI50 (HCT-15) [µM] | GI50 (HOP-62) | GI50 (IGROV-1) | GI50 (LOX IMVI) | GI50 (MCF7) | GI50 (MDA-MB-435) | GI50 (MDA-N) | GI50 (RPMI-8226) | GI50 (SF-539) | GI50 (SN12C) | GI50 (SNB-19) | GI50 (SR) | GI50 (SW-620) | GI50 (TK-10) | GI50 (UO-31) | GI50 (M19-MEL)
1 | O=C(/C=C/c1cccs1)c1ccccc1Cl | 0.417 µM (active) | 14.8 µM (inactive) | 8.71 µM (inactive) | 18.8 µM (inactive) | 10.6 | 15.8 µM (inactive) | 17.6 µM (inactive) | 12.4 µM (inactive) | 4.65 µM (inactive) | 10.9 µM (inactive) | 15.6 µM (inactive) | 16 µM (inactive) | 22.4 µM (inactive) | 15.9 µM (inactive) | 15.6 µM (inactive) | 4.2 µM (inactive) | 14.5 µM (inactive) | 16.4 µM (inactive) | 0.615 µM (active) | –
2 | CCOC(=O)c1nc2ccc(C(F)(F)F)cc2nc1Nc1ccc(OC)c(OC)c1 | > 100 µM (inactive) | 44.1 µM (inactive) | > 100 µM (inactive) | > 100 µM (inactive) | > 100 | 12 µM (inactive) | > 100 µM (inactive) | > 100 µM (inactive) | > 100 µM (inactive) | > 100 µM (inactive) | > 100 µM (inactive) | > 100 µM (inactive) | 98.6 µM (inactive) | > 100 µM (inactive) | 31.7 µM (inactive) | 17.8 µM (inactive) | > 100 µM (inactive) | 41.8 µM (inactive) | > 100 µM (inactive) | –
3 | O=C1CCNC(=O)NC1 | > 100 µM (inactive) | > 100 µM (inactive) | > 100 µM (inactive) | > 100 µM (inactive) | > 100 | > 100 µM (inactive) | > 100 µM (inactive) | > 100 µM (inactive) | – | – | – | > 100 µM (inactive) | – | > 100 µM (inactive) | > 100 µM (inactive) | > 100 µM (inactive) | > 100 µM (inactive) | > 100 µM (inactive) | > 100 µM (inactive) | > 100 µM (inactive)
4 | Clc1ccc(C2N3CCCCC3[C@@H]3c4[nH]c5ccccc5c4CCN23)cc1 (some centres undefined) | 79.6 µM (inactive) | 39.2 µM (inactive) | 24.9 µM (inactive) | – | 53 | > 100 µM (inactive) | > 100 µM (inactive) | – | – | – | – | 90.2 µM (inactive) | 44.1 µM (inactive) | 24.1 µM (inactive) | 93.3 µM (inactive) | – | 44.9 µM (inactive) | > 100 µM (inactive) | 49.7 µM (inactive) | 23.6 µM (inactive)
5 | Cc1ccccc1NC(=O)CC1C(=O)Nc2ccccc2[S+]1[O-] (centres undefined) | > 100 µM (inactive) | 95.3 µM (inactive) | > 100 µM (inactive) | – | > 100 | – | 88.1 µM (inactive) | > 100 µM (inactive) | – | – | – | > 100 µM (inactive) | 36.1 µM (inactive) | 74 µM (inactive) | > 100 µM (inactive) | > 100 µM (inactive) | > 100 µM (inactive) | > 100 µM (inactive) | > 100 µM (inactive) | > 100 µM (inactive)
6 | COC(=O)[C@@H]1[C@H](O)[C@H](C)[C@H](O)[C@@](C)(O)/C=C\C=C(\C)C(=O)Nc2c(C)c(OC(C)=O)c3c(c2O)C(=O)C(C)=C2OCOC(=C23)/C(C)=C/[C@@](C)(O)[C@H](O)[C@@H](C)[C@H]1OC(C)=O | 43.3 µM (inactive) | 79.4 µM (inactive) | 15.8 µM (inactive) | 72.9 µM (inactive) and 14.6 µM (inactive) | 26.9 | 40.5 µM (inactive) | > 100 µM (inactive) and 53 µM (inactive) | 26.8 µM (inactive) | – | – | – | 31.8 µM (inactive) | > 100 µM (inactive) and 50.7 µM (inactive) | 43.6 µM (inactive) | > 100 µM (inactive) and 91.4 µM (inactive) | – | 9.91 µM (inactive) and 59 µM (inactive) | > 66.8 µM (inactive) | 25.9 µM (inactive) | 11.5 µM (inactive)
7 | COc1cc(/C=C/c2cccnc2)cc(OC)c1OC | > 100 µM (inactive) | > 100 µM (inactive) | > 100 µM (inactive) | > 100 µM (inactive) | > 100 | 70.6 µM (inactive) | > 100 µM (inactive) | > 100 µM (inactive) | – | – | – | > 100 µM (inactive) | > 100 µM (inactive) | > 100 µM (inactive) | > 100 µM (inactive) | – | > 100 µM (inactive) | 58.6 µM (inactive) | 36.5 µM (inactive) | > 100 µM (inactive)
8 | CC(=O)NC(CCC(=O)OC(C)(C)C)C(=O)NC(CCC(=O)OC(C)(C)C)C(=O)NC(Cc1ccc([N+](=O)[O-])cc1)C(=O)NC(CCCCNC(=O)OC(C)(C)C)C(=O)NC(CCCCNC(=O)OC(C)(C)C)C(=O)NCC(=O)O (centres undefined) (Ac-E(OtBu)E(OtBu)[Phe(4-NO2)]K(Boc)K(Boc)G-OH; configuration not given here) | > 100 µM (inactive) | > 100 µM (inactive) | > 100 µM (inactive) | > 100 µM (inactive) | > 100 | > 100 µM (inactive) | > 100 µM (inactive) | > 100 µM (inactive) | > 100 µM (inactive) | > 100 µM (inactive) | > 100 µM (inactive) | > 100 µM (inactive) | > 100 µM (inactive) | > 100 µM (inactive) | > 100 µM (inactive) | > 100 µM (inactive) | > 100 µM (inactive) | > 100 µM (inactive) | > 100 µM (inactive) | –
